One assay addresses T1, KRAS (WT) (Homo sapiens, UniProt P01116).
T1 construct: Biotinylated KRAS protein amino acids 1-169 (produced at Erasca); made in house
As to the kind of experiment: In-vitro RAS-RAF binding assay (RRB), HTRF/FRET. Particulars: read-out: Inhibition of RAS-RAF Binding (in-vitro) KRAS (WT) IC50. The format is biochemical. The gist of the method: (§1)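 Biotinylated KRAS 1-169 (streptavidin-terbium donor, 30 nM) and GST-cRAF RBD (anti-GST d2 acceptor, 30 nM) in HEPES pH 7.5, NaCl, MgCl2, DTT buffer. After compound incubation, SOS1 catalytic domain plus GTPgS drive 60 min nucleotide exchange. HTRF FRET read at equilibrium, in duplicate.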
(Time-resolved FRET reads energy transfer from a long-lived donor to a nearby acceptor.)

Assay [1] deals with T2, KRAS G12D (Homo sapiens, UniProt P01116, G12D). As to the kind of experiment: Degradation of KRas G12D in AsPC-1 cells, Western blot. Particulars: for KRAS G12D degradation (Western blot), result in words: AsPC-1 cells, FIGS. 1-5; for Dmax: ASPC1; for Dmax / DC50: AsPc-1 cell line after 24 h treatment. Format: cell-based. Also noted: endogenous in cells; host or cells: AsPC-1 (ATCC CRL-1682). On the procedure: This Example illustrates that the compounds presented herein degrade KRAS G12D.
AsPC-1 cells (ATCC CRL-1682) expressing G12D were grown in RPMI-1640 medium supplemented with 10% fetal bovine serum, and Penicillin/Streptomycin. Cell were plated in 6-well tissue culture plates at a density of 1 million cells/well and allowed to attach for overnight. Diluted compounds were then added in a final concentration of 0.2% DMSO. After 24 hour treatment, the medium was removed, and the plate was washed three times with ice-cold PBS. 50ul of the RIPA cell lysis buffer (ThermoFisher 89901) supplemented with protease inhibitor (Roche 4693116001) and Phosphatase Cocktail A and B inhibitor (Bimake B15002; Bimake Houston TX) was added to each well, the adherent cells were scratched off, and transferred into pre-cold centrifuge tubes. After vigorous vortex, the tubes were incubated on ice for 30 minutes, centrifuged 14,000 rpm for 10 min at 4° C., and the supernatant were transferred into fresh tubes kept on ice. The protein concentration of the supernatant was determined with bicinchoninic acid method (BCA) (ThermoFisher 23227). Samples were prepared to the final concentration of 30ug in 20ul using NuPAGE LDS Sample Buffer (Invitrogen NP0007), NuPAGE Sample Reducing Agent (Invitrogen NP0009), and RIPA cell lysis buffer, and boiled at 95° C. for 15 minutes in water bath.
The levels of KRAS protein and phosphorylated ERK1/2 were determined by Western blotting. 20 μL of protein sample mixture was loaded into each well of 1.5 mm 4-12% Bis-Tris gel (Invitrogen NP0335), and run at 80V in stacking gel and 120 V in separating gel for about 2 h in MOPS running buffer (Invitrogen NP0001). The gel was transferred to the membrane (20V, 7 min) with Invitrogen iBlot2, and blocked with Li-Cor blocking buffer (LI-COR 927-60001; Li-Cor Biotechnology, Lincoln NE) for at least 1 h at room temperature. Primary antibodies diluted in the blocking buffer were added and incubated at 4° C. overnight. As the primary antibodies, KRAS (Proteintech 12063-1-AP), G12D Mutant Specific KRAS (Cell Signaling Technology 14429S), ERKI1/2 (Cell Signaling Technology 4695S), Phospho-ERKI1/2 (Cell Signaling Technology 4370S), and GAPDH (Millipore MAB374) were used. The membrane was washed 4 times with TBST (0.10% Tween20®; ThermoFisher 28360) for 5 minutes at room temperature, then incubated with Li-Cor anti-rabbit-800 (LI-COR 926-68070) and anti-mouse-680 (LI-COR-926-32211) diluted in Li-Cor blocking buffer with the ratio of 1:15,000 to visualize the primary antibodies for 1 hour at room temperature. Then membrane was washed 4 times with TBST (0.1% Tween20) 5 minutes. The signal intensities of bands were quantified by Li-Cor Odyssey CLX.
The KRas and phosphor-ERK1/2 signals were normalized to the GAPDH signal for each lane and percent of DMSO values were calculated to determine the degradation of KRas and the inhibition of ERK1/2 phosphorylation upon the compound treatment.
Target sequence in this assay (P01116 1-188 isoform P01116-2 G12D): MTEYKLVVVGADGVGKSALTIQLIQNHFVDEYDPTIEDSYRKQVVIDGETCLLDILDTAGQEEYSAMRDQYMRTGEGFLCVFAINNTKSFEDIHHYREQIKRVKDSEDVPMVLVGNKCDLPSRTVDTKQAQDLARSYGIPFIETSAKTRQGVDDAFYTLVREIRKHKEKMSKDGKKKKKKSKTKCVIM
(In western blotting, separated proteins are transferred to a membrane and probed.)

Assay [2] has as its target T2, KRAS G12D. As to the kind of experiment: In-vitro RAS-RAF binding assay (RRB), HTRF/FRET. Format: biochemical. Further details: Biotinylated KRAS protein amino acids 1-169 (produced at Erasca); made in house. Particulars: read-out: Inhibition of RAS-RAF Binding (in-vitro) KRAS (G12D) IC50. The gist of the method: as §1
Target sequence in this assay (P01116 1-169 isoform P01116-2 G12D): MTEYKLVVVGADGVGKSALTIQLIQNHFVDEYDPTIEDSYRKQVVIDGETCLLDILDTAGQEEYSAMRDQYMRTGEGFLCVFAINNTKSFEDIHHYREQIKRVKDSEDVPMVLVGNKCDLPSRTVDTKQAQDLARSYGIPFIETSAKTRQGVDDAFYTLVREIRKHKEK
Assay [3] deals with T3, KRas G12D fused to HiBiT peptide (Homo sapiens, UniProt P01116, G12D).
T3 construct: endogenous in cells; host or cells: AsPC-1 HiBiT knock-in single clone (Cas9 RNP + ssODN)
As to the kind of experiment: ASPC-1 HiBit assay to determine G12D degradation. The format is cell-based. Particulars: AsPC-1 HiBiT cells, 24-hour incubation; read-out: ASPC-1 HiBit DC50 (C). The gist of the method:
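Homozygous AsPC-1 clone with N-terminal HiBiT knock-in on endogenous KRas G12D, 24 h compound exposure, top dose 10 μM, 3-fold, 10 points, 1% DMSO. Lytic HiBiT luminescence normalised to DMSO and inhibitor controls gives % degradation; DC50 from 4-parameter fit after hook-effect points removed.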
On the technique in general: HiBiT is a short tag that completes a luciferase, so light tracks the accessible tagged protein.

Setting [4] is: Table 2, average of multiple runs of each compound.

The term IC50 denotes the concentration needed to halve the response being measured. By Dmax is commonly meant the largest share of the target that was removed. A higher Dmax goes with deep degradation. As usually defined, the DC50 is the concentration at which degradation of the target reaches its halfway point.

Like-named read-outs stand apart in the source and are kept apart here.

T1 sequence (P01116 1-169 isoform P01116-2): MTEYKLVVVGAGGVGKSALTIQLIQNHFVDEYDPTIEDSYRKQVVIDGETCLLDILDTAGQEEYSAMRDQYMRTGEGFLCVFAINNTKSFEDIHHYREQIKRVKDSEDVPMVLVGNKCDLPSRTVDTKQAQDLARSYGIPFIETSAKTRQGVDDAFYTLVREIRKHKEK
T3 sequence (P01116 1-188 isoform P01116-2 G12D): as the sequence (P01116 1-188 isoform P01116-2 G12D) above

Turning to `Cc1ncsc1-c1ccc([C@H](C)NC(=O)[C@@H]2C[C@@H](O)CN2C(=O)[C@@H](NC(=O)CCCCN2CCC[C@H]2COc2nc(N3CC4CCC(C3)N4)c3cc(Cl)c(-c4ccc(F)c5sc(N)nc45)c(F)c3n2)C(C)(C)C)cc1` [Example 7, (2S,4R)-1-[(2S)-2-[5-[(2S)-2-[[7-(2-amino-7-fluoro-1,3-benzothiazol-4-yl)-6-chloro-4-(3,8-diazabicyclo[3.2.1]octan-3-yl)-8-fluoro-quinazolin-2-yl]oxymethyl]pyrrolidin-1-yl]pentanoylamino]-3,3-dimethyl-butanoyl]-4-hydroxy-N-[(1S)-1-[4-(4-methylthiazol-5-yl)phenyl]ethyl]pyrrolidine-2-carboxamide], the IC50 at KRAS (WT) (Table 1) was found to be 448 nM; on KRAS (WT) (setting [4]), 448 nM; at KRAS G12D [2] (Table 1) it was 12 nM; on KRAS G12D [2] (setting [4]), 12.4 nM. Moreover, the “KRAS G12D degradation (Western blot), result in words” value (“KRAS G12D degradation (Western blot)” for short) at KRAS G12D [1] is recorded as “Favorable results”.

Take `Cc1ncsc1-c1ccc([C@H](C)NC(=O)[C@@H]2C[C@@H](O)CN2C(=O)[C@@H](NC(=O)CCOCCCN2CCC[C@H]2COc2nc(N3CC4CCC(C3)N4)c3cc(Cl)c(-c4ccc(F)c5sc(N)nc45)c(F)c3n2)C(C)(C)C)cc1` [Example 4, (2S,4R)-1-[(2S)-2-[3-[3-[(2S)-2-[[7-(2-amino-7-fluoro-1,3-benzothiazol-4-yl)-6-chloro-4-(3,8-diazabicyclo[3.2.1]octan-3-yl)-8-fluoro-quinazolin-2-yl]oxymethyl]pyrrolidin-1-yl]propoxy]propanoylamino]-3,3-dimethylbutanoyl]-4-hydroxy-N-[(1S)-1-[4-(4-methylthiazol-5-yl)phenyl]ethyl]pyrrolidine-2-carboxamide]: the IC50 at KRAS (WT) (Table 1) turned out to be 134 nM; on KRAS (WT) (setting [4]) it was 216 nM; on KRAS G12D [2] (Table 1), 13 nM; on KRAS G12D [2] (setting [4]), 15.1 nM. The “KRAS G12D degradation (Western blot)” value on KRAS G12D [1] is “successful degradation”.

For the compound `Cc1ncsc1-c1ccc([C@H](C)NC(=O)[C@@H]2C[C@@H](O)CN2C(=O)[C@@H](NC(=O)CCOCCCN2CCC[C@H]2COc2nc(N3CC4CCC(C3)N4)c3cnc(-c4cc(O)cc5cccc(F)c45)c(F)c3n2)C(C)(C)C)cc1` [Example 6, (2S,4R)-1-[(2S)-2-[3-[3-[(2S)-2-[[4-(3,8-diazabicyclo[3.2.1]octan-3-yl)-8-fluoro-7-(8-fluoro-3-hydroxy-1-naphthyl)pyrido[4,3-d]pyrimidin-2-yl]oxymethyl]pyrrolidin-1-yl]propoxy]propanoylamino]-3,3-dimethyl-butanoyl]-4-hydroxy-N-[(1S)-1-[4-(4-methylthiazol-5-yl)phenyl]ethyl]pyrrolidine-2-carboxamide], the IC50 is 126 nM at KRAS (WT) (Table 1), 158 nM on KRAS (WT) (setting [4]), 9.5 nM at KRAS G12D [2] (Table 1) and 8.21 nM at KRAS G12D [2] (setting [4]). This compound had a Dmax on KRAS G12D [1] of 95%. The “KRAS G12D degradation (Western blot)” value at KRAS G12D [1] is recorded as “Favorable results”. This compound returned a DC50 at KRAS G12D [1] of 255 nM.

For `Cc1ncsc1-c1ccc([C@H](CO)NC(=O)[C@@H]2C[C@@H](O)CN2C(=O)[C@@H](NC(=O)CCOCCCN2CCC[C@H]2COc2nc(N3CC4CCC(C3)N4)c3cc(Cl)c(-c4ccc(F)c5sc(N)c(C#N)c45)c(F)c3n2)C(C)(C)C)cc1` [Example 9, (2S,4R)-1-[(2S)-2-[3-[3-[(2S)-2-[[7-(2-amino-3-cyano-7-fluoro-benzothiophen-4-yl)-6-chloro-4-(3,8-diazabicyclo[3.2.1]octan-3-yl)-8-fluoro-quinazolin-2-yl]oxymethyl]pyrrolidin-1-yl]propoxy]propanoylamino]-3,3-dimethyl-butanoyl]-4-hydroxy-N-[(1R)-2-hydroxy-1-[4-(4-methylthiazol-5-yl)phenyl]ethyl]pyrrolidine-2-carboxamide], the IC50 amounted to 49.5 nM at KRAS (WT) (Table 1), 49.5 nM at KRAS (WT) (setting [4]), 13.8 nM on KRAS G12D [2] (Table 1) and 13.8 nM on KRAS G12D [2] (setting [4]). The compound also had a Dmax on KRAS G12D [1] of 95%. Also, the “KRAS G12D degradation (Western blot)” value on KRAS G12D [1] is listed as “Favorable results”. This compound displayed a DC50 on KRAS G12D [1] of 183 nM.

Turning to `C#Cc1c(F)ccc2cc(O)cc(-c3ncc4c(N5CC6CCC(C5)N6)nc(OCCN5CCC6(CC5)CN(c5cc([C@H](C(=O)N7C[C@H](O)C[C@H]7C(=O)N[C@@H](C)c7ccc(-c8c(F)cccc8F)cc7)C(C)C)on5)C6)nc4c3F)c12` [Example 16, (2S,4R)-1-[(2R)-2-[3-[7-[2-[4-(3,8-diazabicyclo[3.2.1]octan-3-yl)-7-(8-ethynyl-7-fluoro-3-hydroxy-1-naphthyl)-8-fluoro-pyrido[4,3-d]pyrimidin-2-yl]oxyethyl]-2,7-diazaspiro[3.5]nonan-2-yl]isoxazol-5-yl]-3-methyl-butanoyl]-N-[(1S)-1-[4-(2,6-difluorophenyl)phenyl]ethyl]-4-hydroxy-pyrrolidine-2-carboxamide], the values for the IC50 on KRAS (WT) (setting [4]) and at KRAS G12D [2] (setting [4]) were 940 nM and 9.79 nM, respectively. For the same compound, the DC50 in assay [3] was determined as 69.7 nM.
